# How the values were obtained:
# [1] = test system: Pseudomonas aeruginosa; assay: Antibacterial activity against Pseudomonas aeruginosa ATCC 27853 assessed as effect on planktonic growth at 0.17 ug/ml after 20 hrs relative to control; format: functional
# [2] = test system: Staphylococcus aureus; assay: Antibacterial activity against Staphylococcus aureus ATCC 25923 assessed as effect on planktonic growth at 0.68 ug/ml after 20 hrs relative to control; format: functional
# [3] = test system: Staphylococcus aureus; assay: Antibacterial activity against Staphylococcus aureus ATCC 25923 assessed as effect on planktonic growth at 2.73 ug/ml after 20 hrs relative to control; format: functional
# [4] = test system: Staphylococcus epidermidis; assay: Antibacterial activity against Staphylococcus epidermidis ATCC 35547 assessed as effect on planktonic growth at 21.9 ug/ml after 20 hrs relative to control; format: functional
# [5] = test system: Staphylococcus epidermidis; assay: Antibacterial activity against Staphylococcus epidermidis ATCC 35547 assessed as effect on planktonic growth at 2.73 ug/ml after 20 hrs relative to control; format: functional
# [6] = test system: Staphylococcus aureus; assay: Antibacterial activity against Staphylococcus aureus ATCC 25923 assessed as effect on planktonic growth at 1.37 ug/ml after 20 hrs relative to control; format: functional
# [7] = test system: Staphylococcus epidermidis; assay: Antibacterial activity against Staphylococcus epidermidis ATCC 35547 assessed as effect on planktonic growth at 43.8 ug/ml after 20 hrs relative to control; format: functional
# [8] = test system: Staphylococcus epidermidis; assay: Antibacterial activity against Staphylococcus epidermidis ATCC 35547 assessed as effect on planktonic growth at 5.5 ug/ml after 20 hrs relative to control; format: functional
# [9] = test system: Staphylococcus epidermidis; assay: Antibacterial activity against Staphylococcus epidermidis ATCC 35547 assessed as effect on planktonic growth at 1.37 ug/ml after 20 hrs relative to control; format: functional
# [10] = test system: Streptococcus mutans; assay: Antibacterial activity against Streptococcus mutans ATCC 25175 assessed as effect on planktonic growth at 5.5 ug/ml after 20 hrs relative to control; format: functional
# [11] = test system: Streptococcus mutans; assay: Antibacterial activity against Streptococcus mutans ATCC 25175 assessed as effect on planktonic growth at 21.9 ug/ml after 20 hrs relative to control; format: functional
# [12] = test system: Streptococcus mutans; assay: Antibacterial activity against Streptococcus mutans ATCC 25175 assessed as effect on planktonic growth at 0.34 ug/ml after 20 hrs relative to control; format: functional
# [13] = test system: Pseudomonas aeruginosa; assay: Antibacterial activity against Pseudomonas aeruginosa ATCC 27853 assessed as effect on planktonic growth at 0.34 ug/ml after 20 hrs relative to control; format: functional
# [14] = test system: Pseudomonas aeruginosa; assay: Antibacterial activity against Pseudomonas aeruginosa ATCC 27853 assessed as effect on planktonic growth at 1.37 ug/ml after 20 hrs relative to control; format: functional
# [15] = test system: Staphylococcus aureus; assay: Antibacterial activity against Staphylococcus aureus ATCC 25923 assessed as effect on planktonic growth at 0.34 ug/ml after 20 hrs relative to control; format: functional
# [16] = test system: Staphylococcus aureus; assay: Antibacterial activity against Staphylococcus aureus ATCC 25923 assessed as effect on planktonic growth at 87.5 ug/ml after 20 hrs relative to control; format: functional
# [17] = test system: Staphylococcus aureus; assay: Antibacterial activity against Staphylococcus aureus ATCC 25923 assessed as effect on planktonic growth at 43.8 ug/ml after 20 hrs relative to control; format: functional
# [18] = test system: Staphylococcus aureus; assay: Antibacterial activity against Staphylococcus aureus ATCC 25923 assessed as effect on planktonic growth at 10.9 ug/ml after 20 hrs relative to control; format: functional
# [19] = test system: Pseudomonas aeruginosa; assay: Antibacterial activity against Pseudomonas aeruginosa ATCC 27853 assessed as effect on planktonic growth at 87.5 ug/ml after 20 hrs relative to control; format: functional
# [20] = test system: Staphylococcus epidermidis; assay: Antibacterial activity against Staphylococcus epidermidis ATCC 35547 assessed as effect on planktonic growth at 87.5 ug/ml after 20 hrs relative to control; format: functional
# [21] = test system: Streptococcus mutans; assay: Antibacterial activity against Streptococcus mutans ATCC 25175 assessed as effect on planktonic growth at 0.68 ug/ml after 20 hrs relative to control; format: functional
# [22] = test system: Pseudomonas aeruginosa; assay: Antibacterial activity against Pseudomonas aeruginosa ATCC 27853 assessed as inhibition of biofilm formation after 20 hrs by crystal-violet staining method; format: functional, organism-based
# [23] = test system: Staphylococcus aureus; assay: Antibacterial activity against Staphylococcus aureus ATCC 25923 assessed as effect on planktonic growth at 0.17 ug/ml after 20 hrs relative to control; format: functional
# [24] = test system: Streptococcus mutans; assay: Antibacterial activity against Streptococcus mutans ATCC 25175 assessed as effect on planktonic growth at 2.73 ug/ml after 20 hrs relative to control; format: functional
# [25] = test system: Pseudomonas aeruginosa; assay: Antibacterial activity against Pseudomonas aeruginosa ATCC 27853 assessed as effect on planktonic growth at 0.68 ug/ml after 20 hrs relative to control; format: functional
# [26] = test system: Pseudomonas aeruginosa; assay: Antibacterial activity against Pseudomonas aeruginosa ATCC 27853 assessed as effect on planktonic growth at 10.9 ug/ml after 20 hrs relative to control; format: functional
# [27] = test system: Staphylococcus epidermidis; assay: Antibacterial activity against Staphylococcus epidermidis ATCC 35547 assessed as inhibition of biofilm formation after 20 hrs by crystal-violet staining method; format: functional, organism-based; settings: for IC50: ATCC 35547, 20 h
# [28] = test system: Streptococcus mutans; assay: Antibacterial activity against Streptococcus mutans ATCC 25175 assessed as effect on planktonic growth at 43.8 ug/ml after 20 hrs relative to control; format: functional
# [29] = test system: Streptococcus mutans; assay: Antibacterial activity against Streptococcus mutans ATCC 25175 assessed as effect on planktonic growth at 0.17 ug/ml after 20 hrs relative to control; format: functional
# [30] = test system: Staphylococcus epidermidis; assay: Antibacterial activity against Staphylococcus epidermidis ATCC 35547 assessed as effect on planktonic growth at 0.17 ug/ml after 20 hrs relative to control; format: functional
# [31] = test system: Streptococcus mutans; assay: Antibacterial activity against Streptococcus mutans ATCC 25175 assessed as effect on planktonic growth at 10.9 ug/ml after 20 hrs relative to control; format: functional
# [32] = test system: Pseudomonas aeruginosa; assay: Antibacterial activity against Pseudomonas aeruginosa ATCC 27853 assessed as effect on planktonic growth at 21.9 ug/ml after 20 hrs relative to control; format: functional
# [33] = test system: Streptococcus mutans; assay: Antibacterial activity against Streptococcus mutans ATCC 25175 assessed as effect on planktonic growth at 87.5 ug/ml after 20 hrs relative to control; format: functional
# [34] = test system: Staphylococcus aureus; assay: Antibacterial activity against Staphylococcus aureus ATCC 25923 assessed as effect on planktonic growth at 5.5 ug/ml after 20 hrs relative to control; format: functional
# [35] = test system: Pseudomonas aeruginosa; assay: Antibacterial activity against Pseudomonas aeruginosa ATCC 27853 assessed as effect on planktonic growth at 2.73 ug/ml after 20 hrs relative to control; format: functional
# [36] = test system: Staphylococcus epidermidis; assay: Antibacterial activity against Staphylococcus epidermidis ATCC 35547 assessed as effect on planktonic growth at 0.34 ug/ml after 20 hrs relative to control; format: functional
# [37] = test system: Pseudomonas aeruginosa; assay: Antibacterial activity against Pseudomonas aeruginosa ATCC 27853 assessed as effect on planktonic growth at 5.5 ug/ml after 20 hrs relative to control; format: functional
# [38] = test system: Staphylococcus epidermidis; assay: Antibacterial activity against Staphylococcus epidermidis ATCC 35547 assessed as effect on planktonic growth at 10.9 ug/ml after 20 hrs relative to control; format: functional
# [39] = test system: Streptococcus mutans; assay: Antibacterial activity against Streptococcus mutans ATCC 25175 assessed as effect on planktonic growth at 1.37 ug/ml after 20 hrs relative to control; format: functional
# [40] = test system: Staphylococcus aureus; assay: Antibacterial activity against Staphylococcus aureus ATCC 25923 assessed as effect on planktonic growth at 21.9 ug/ml after 20 hrs relative to control; format: functional
# [41] = test system: Pseudomonas aeruginosa; assay: Antibacterial activity against Pseudomonas aeruginosa ATCC 27853 assessed as effect on planktonic growth at 43.8 ug/ml after 20 hrs relative to control; format: functional
# [42] = test system: Staphylococcus epidermidis; assay: Antibacterial activity against Staphylococcus epidermidis ATCC 35547 assessed as effect on planktonic growth at 0.68 ug/ml after 20 hrs relative to control; format: functional
structure (smiles),measurement,setting,value
COc1ccccc1C1=C(Br)C(=O)N(CC(C)C)/C1=C\c1ccc(C(F)(F)F)cc1,Activity,[1],-2.1%
same,Activity,[2],-18.1%
same,Activity,[3],-35.6%
same,Activity,[4],38.7%
same,Activity,[5],-21.2%
same,Activity,[6],-30.9%
same,Activity,[7],37.8%
same,Activity,[8],-14.8%
same,Activity,[9],-17.9%
same,Activity,[10],-3%
same,Activity,[11],-11.6%
same,Activity,[12],0.6%
same,Activity,[13],-1.7%
same,Activity,[14],-5.9%
same,Activity,[15],-14.7%
same,Activity,[16],1.8%
same,Activity,[17],-15.4%
same,Activity,[18],-33.8%
same,Activity,[19],35.2%
same,Activity,[20],-6.3%
same,Activity,[21],5.5%
same,inhibition,[22],Dose-dependent effect
same,Activity,[23],-5.8%
same,Activity,[24],14%
same,Activity,[25],0.1%
same,Activity,[26],35.6%
same,inhibition,[27],Dose-dependent effect
same,IC50,[27],23 µg/mL
same,Activity,[28],-13.5%
same,Activity,[29],0.3%
same,Activity,[30],-22.1%
same,Activity,[31],-12.9%
same,Activity,[32],53.2%
same,Activity,[33],3.6%
same,Activity,[34],-33.5%
same,Activity,[35],-9.2%
same,Activity,[36],-17%
same,Activity,[37],-1.7%
same,Activity,[38],6.6%
same,Activity,[39],10.7%
same,Activity,[40],-29.3%
same,Activity,[41],44%
same,Activity,[42],-13.2%
COc1ccc(Br)cc1C1=C(Br)C(=O)N(CC(C)C)/C1=C/c1cccc(Cl)c1,Activity,[1],1.8%
same,Activity,[2],-19.6%
same,Activity,[3],-14%
same,Activity,[4],27.7%
same,Activity,[5],11.4%
same,Activity,[6],-17.8%
same,Activity,[7],56.1%
same,Activity,[8],21.1%
same,Activity,[9],1%
same,Activity,[10],2.8%
same,Activity,[11],-7.5%
same,Activity,[12],7%
same,Activity,[13],-3.3%
same,Activity,[14],5%
same,Activity,[15],-17.1%
same,Activity,[16],12.8%
same,Activity,[17],-5.2%
same,Activity,[18],-11.9%
same,Activity,[19],15.5%
same,Activity,[20],70.2%
same,Activity,[21],-6.5%
same,inhibition,[22],Dose-dependent effect
same,IC50,"[22]; ATCC 27853, 20 h",> 87.5 µg/mL
same,Activity,[23],-18.7%
same,Activity,[24],12.6%
same,Activity,[25],3.4%
same,Activity,[26],-7%
same,inhibition,[27],Dose-dependent effect
same,IC50,[27],46.7 µg/mL
same,Activity,[28],2.5%
same,Activity,[29],6%
same,Activity,[30],2.1%
same,Activity,[31],8.3%
same,Activity,[32],-4.5%
same,Activity,[33],-7.3%
same,Activity,[34],-16%
same,Activity,[35],4.7%
same,Activity,[36],4.9%
same,Activity,[37],-4%
same,Activity,[38],10.8%
same,Activity,[39],15.3%
same,Activity,[40],-13.1%
same,Activity,[41],-3.2%
same,Activity,[42],4.8%
